Experimental data taken from PMC5584945, “Evaluation of robenidine analog NCL195 as a novel broad-spectrum antibacterial agent” (PLoS ONE, 2017).
≈ marks a conversion by molar mass, not a printed value.

System: vancomycin-resistant enterococci (VRE)
Experiment: MIC, broth micro-dilution (CLSI)
Format: cell-based, enterococci (porcine isolates)
[1] = Enterococcus, VRE, S3 Table isolates, absence of FBS

## CC1(C)S[C@@H]2[C@H](NC(=O)[C@H](N)c3ccccc3)C(=O)N2[C@H]1C(=O)O [Ampicillin]
Enterococcus, VRE, 20 isolates
  MIC90: 2 µg/mL (≈ 5.72 µM)
[1]
  MIC50: 1 µg/mL (≈ 2.86 µM)
  MIC90: 2 µg/mL (≈ 5.72 µM)
Enterococcus, VRE, VRE 1 (49 FR), absence of FBS
  MIC: 2 µg/mL (≈ 5.72 µM)
Enterococcus, VRE, VRE 2 (53 FR), absence of FBS
  MIC: 1 µg/mL (≈ 2.86 µM)
Enterococcus, VRE, VRE 3 (55 FR), absence of FBS
  MIC: 1 µg/mL (≈ 2.86 µM)
Enterococcus, VRE, VRE 4 (57 FR), absence of FBS
  MIC: 1 µg/mL (≈ 2.86 µM)
Enterococcus, VRE, VRE5 (58 FR), absence of FBS
  MIC: 1 µg/mL (≈ 2.86 µM)
Enterococcus, VRE, VRE 6 (59 FR), absence of FBS
  MIC: 2 µg/mL (≈ 5.72 µM)
Enterococcus, VRE, VRE 7 (270 G), absence of FBS
  MIC: 0.25 µg/mL (≈ 0.715 µM)
Enterococcus, VRE, VRE 8 (277 G), absence of FBS
  MIC: 2 µg/mL (≈ 5.72 µM)
Enterococcus, VRE, VRE 9 (61 FR), absence of FBS
  MIC: 1 µg/mL (≈ 2.86 µM)
Enterococcus, VRE, VRE 10 (62 FR), absence of FBS
  MIC: 2 µg/mL (≈ 5.72 µM)
Enterococcus, VRE, VRE 11 (284 G), absence of FBS
  MIC: 2 µg/mL (≈ 5.72 µM)
Enterococcus, VRE, VRE 12 (290 G), absence of FBS
  MIC: 1 µg/mL (≈ 2.86 µM)
Enterococcus, VRE, VRE 13 (251 G), absence of FBS
  MIC: 1 µg/mL (≈ 2.86 µM)
Enterococcus, VRE, VRE 14 (252 G), absence of FBS
  MIC: 0.5 µg/mL (≈ 1.43 µM)
Enterococcus, VRE, VRE 15 (63 FR), absence of FBS
  MIC: 1 µg/mL (≈ 2.86 µM)
Enterococcus, VRE, VRE 16 (60 FR), absence of FBS
  MIC: 1 µg/mL (≈ 2.86 µM)
Enterococcus, VRE, VRE 17 (45 FR), absence of FBS
  MIC: 2 µg/mL (≈ 5.72 µM)
Enterococcus, VRE, VRE 18 (69 W), absence of FBS
  MIC: 1 µg/mL (≈ 2.86 µM)
Enterococcus, VRE, VRE 19 (70 W), absence of FBS
  MIC: 1 µg/mL (≈ 2.86 µM)
Enterococcus, VRE, VRE 20 (78 W), absence of FBS
  MIC: 1 µg/mL (≈ 2.86 µM)
S3 Table isolates, absence of FBS
  MIC range: 0.25 to 2 µg/mL
